Test results taken from US20230143751A1, “Aromatic Compound And Use Thereof In Preparing Antineoplastic Drugs” (Shanghai Zheye Biotechnology Co. Ltd., priority 2020, published 2023).

Experiments:
[1] = Analysis regarding therapeutic safety window; conditions: in vivo, oral, 5 days
[2] = Acute toxicity test, single oral dose in SD rats; assay type: in vivo; conditions: SD rats, single oral gavage, 500, 1000, 2000 mg/kg
Protocol: (§1) Test samples: Compound 3-2, and Compound 3-6.
(§2) Animal species and number: SD rat; 6 animals per group (half male and half female).
(§3) Administration mode: oral administration by gavage.
Animal grouping and administration dose: vehicle blank group, Compound 3-2 group (500 mg/kg, 1000 mg/kg, 2000 mg/kg), Compound 3-6 group (500 mg/kg, 1000 mg/kg, 2000 mg/kg).
Administration frequency: once.
(§4) Death, morbidity, respiration, secretions, feces, and diet, drinking situation and so on were observed, and the changes in body weight of the rats during the administration period were recorded. The contents of detailed clinical observation included but were not limited to behavioral activity, skin, coat, eyes, ears, nose, abdomen, external genitalia, anus, extremities, feet, and respiration. The animals in each group were euthanized at the end of observation period, and all animals were dissected and subjected to gross observation.

[3] = Safety test for repeated administration for 14 days in SD rats; assay type: in vivo; conditions: oral gavage once a day for 14 days, 50, 150, 400 mg/kg
Protocol: as §1, §2, §3
Animal grouping and administration dose: vehicle blank group, Compound 3-2 group (50 mg/kg, 150 mg/kg, 400 mg/kg), Compound 3-6 group (50 mg/kg, 150 mg/kg, 400 mg/kg).
Administration frequency: once a day for 14 days.
as §4, with “General clinical observations were performed 2 times a day (once in the morning and once in the afternoon) during the test period. Death,” for “Death,”, “of administration” for “of observation”

NCI-H358 cells = test: Cell proliferation activity of NCI-H358 by CellTiter-Glo reagent; assay type: cell-based; conditions: Homo sapiens, NCI-H358; test 8, method of test 3; read-out: IC50 of proliferation inhibitory activity of the compound on NCI-H358 cell line
How it was run: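 NCI-H358 cells seeded at 2000–3000 per well and grown overnight at 37° C, 5% CO2 before compound exposure. Viability read by CellTiter-Glo luminescence; IC50 from curve fitting.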

C=CC(=O)N1CCN(c2nc(=O)n(-c3c(C)ccnc3C(C)C)c3nc(-c4ccccc4C=C)c(Cl)cc23)[C@@H](C)C1 [Compound 3-2]
therapeutic safety window: ratio of toxic dose to effective dose [1]: greater than 80 | death or morbidity after single dose (in words) [2]: No animals in each group were dead or close to death | MTD ([2]; both sexes, rat, in vivo, read-out: maximum tolerated dose (MTD)): ≥ 2000 mg/kg | water and food intake, activity and body weight during the administration period (in words) [3]: no significant abnormality was showed | IC50 (NCI-H358 cells): 0.01 µM
